Values quoted from earlier work, collected in patent US20070010584A1, “Compositions and methods for orthostatic intolerance” (priority 2003, published 2007).
Like-named read-outs stand apart in the source and are kept apart here. Blank lines part the entries; values can stand above or below the compound they belong to.

Experiments:
[1] = in vivo
[2] = tested on: patients with OI and orthostatic tachycardia; settings: in vivo
[3] = clonidine 0.1 mg PO, 13 patients with OI

time of peak NE levels (after ingestion of DOPS): about 5 hours | duration of increased plasma levels of DOPS and NE (after oral administration of DOPS): at least 12 hours | time of peak plasma levels of DOPS (after oral ingestion): about 3 hours
Structure (SMILES): N[C@H](C(=O)O)[C@H](O)c1ccc(O)c(O)c1 [DOPS, Threo-3-(3,4-dihydroxyphenyl)serine]

half-life [1]: 30 min
Structure (SMILES): COc1ccc(OC)c(C(O)CNC(=O)CN)c1 (stereo not drawn) [Midodrine]
supine and standing heart rate (patients with OI; midodrine 5-10 mg PO, 13 patients with OI): decreased both supine and standing heart rate

Structure (SMILES): CC(C)NCC(O)COc1cccc2ccccc12 (stereo not drawn) [Propranolol]
efficacy in OI and orthostatic tachycardia [2]: effective in a number of patients

Structure (SMILES): Clc1cccc(Cl)c1N=C1NCCN1 [clonidine]
tolerability in OI patients (patients with OI; clonidine 0.1 mg PO): tolerate clonidine poorly | blood pressure (patients with OI; [3]): significantly decreased blood pressure | supine and standing heart rate (patients with OI; [3]): decreased both supine and standing heart rate
